Experimental data taken from patent US20250382273A1 (INSTITUT NATIONAL DE LA SANTE ET DE LA RECHERCHE MEDICALE, priority 2022, published 2025).

Test system: M. tuberculosis H37Rv_DdnL49P_gfp
Assay type: cell-based, Mycobacterium tuberculosis
Settings: read-out: EC50 H37Rv_DdnL49P_gfp

Question: Which EC50 does the source give for O=C1[C@@H]2C3C=CC(C3)[C@@H]2C(=O)N1c1nc2ccc(Nc3cccc(C(F)(F)F)n3)cc2s1 [Example 97, 4-[6-[[6-(trifluoromethyl)-2-pyridyl]amino]-1,3-benzothiazol-2-yl]-4-azatricyclo[5.2.1.02,6]dec-8-ene-3,5-dione] here?
Answer: < 1000 nM

Question: Which EC50 does the source give for O=C(Nc1nc2ccc(Nc3ccnc(F)c3)cc2s1)[C@@H]1C2C=CC(C2)[C@@H]1C(=O)O (stereo partly drawn) [Example 99, 3-[[6-[(2-fluoro-4-pyridyl)amino]-1,3-benzothiazol-2-yl]carbamoyl]bicyclo[2.2.1]hept-5-ene-2-carboxylic acid] here?
Answer: 1000 to 5000 nM

Question: O=C(Nc1nc2ccc(-c3ccc(N4CCCCC4)cc3)cc2s1)[C@@H]1C2C=CC(C2)[C@@H]1C(=O)O (stereo partly drawn) [Example 100] was tested. Which EC50 did it give?
Answer: < 1000 nM
